Experimental data reported in US9447100B2, “Substituted pyrazolo[1,5-A] pyrimidines as calcium receptor modulating agents” (Takeda Pharmaceutical Company Limited, priority 2002, dated 2016).
Counter-ions that a name gives are not always drawn.

Row | melting point | Compound
1 | 213 to 214 °C | CCC1(CC)CC(c2ccccc2)Nc2c(C(=O)NC34CC5CC(CC(C5)C3)C4)cnn21 (stereo not shown)
2 | 274 to 275 °C | O=C(NC12CC3CC(CC(C3)C1)C2)c1cnn2c1NC(c1ccccc1)CC21CCCCC1 (stereo not shown)
3 | 168 to 169 °C | CCC(CC)(NC(=O)c1cnn2c1NC(c1ccccc1)CC2(C)C)c1ccc(-c2cccnc2)cc1 (stereo not shown) (as salt: HCl) [Example 583, N-(1-ethyl-1-(4-(3-pyridinyl)phenyl)propyl)-7,7-dimethyl-5-phenyl-4,5,6,7-tetrahydropyrazolo[1,5-a]pyrimidine-3-carboxamide]
4 | 140 to 142 °C | CCC1(NC(=O)c2cnn3c2NC(c2ccccc2)CC3(C)C)CCCC1 (stereo not shown) (as salt: HCl) [Example 588, N-(1-ethylcyclopentyl)-7,7-dimethyl-5-phenyl-4,5,6,7-tetrahydropyrazolo[1,5-a]pyrimidine-3-carboxamide]
5 | 180 to 181 °C | CCC(CC)(NC(=O)c1c(C)nn2c1NC(c1ccccc1)CC2(C)C)c1ccc(Cl)cc1 (stereo not shown) (as salt: HCl) [Example 723, N-(1-(4-chlorophenyl)-1-ethylpropyl)-2,7,7-trimethyl-5-phenyl-4,5,6,7-tetrahydropyrazolo[1,5-a]pyrimidine-3-carboxamide]
6 | 185 to 187 °C | CCC(CC)(NC(=O)c1c(C)nn2c1NC(c1ccccc1)CC2(C)C)c1ccc(Br)cc1 (stereo not shown) (as salt: HCl) [Example 738, N-(1-(4-bromophenyl)-1-ethylpropyl)-2,7,7-trimethyl-5-phenyl-4,5,6,7-tetrahydropyrazolo[1,5-a]pyrimidine-3-carboxamide]
7 | 137 to 138 °C | CCC(CC)(NC(=O)c1cnn2c1NC(c1ccccc1)CC2(C)C)c1ccc(C)c(C)c1 (stereo not shown) (as salt: HCl) [Example 769, N-(1-(3,4-dimethylphenyl)-1-ethylpropyl)-7,7-dimethyl-5-phenyl-4,5,6,7-tetrahydropyrazolo[1,5-a]pyrimidine-3-carboxamide]
8 | 115 to 117 °C | CCC(CC)(NC(=O)c1c(SC)nn2c1NC(c1ccccc1)CC2(C)C)c1ccc(Cl)cc1 (stereo not shown) (as salt: HCl) [Example 780, N-(1-(4-chlorophenyl)-1-ethylpropyl)-7,7-dimethyl-2-(methylthio)-5-phenyl-4,5,6,7-tetrahydropyrazolo[1,5-a]pyrimidine-3-carboxamide]
9 | 187 to 188 °C | CCC(CC)(NC(=O)c1c(C)nn2c1NC(c1ccccc1C)CC2(C)C)c1ccc(C)cc1 (stereo not shown) (as salt: HCl) [Example 782, N-(1-ethyl-1-(4-methylphenyl)propyl)-2,7,7-trimethyl-5-(2-methylphenyl)-4,5,6,7-tetrahydropyrazolo[1,5-a]pyrimidine-3-carboxamide]
10 | 207 to 208 °C | CC(C)(NC(=O)c1cnn2c1NC(c1ccccc1)CC2(C)C)c1ccc(Cl)cc1 (stereo not shown) (as salt: HCl) [Example 791, N-(1-(4-chlorophenyl)-1-methylethyl)-7,7-dimethyl-5-phenyl-4,5,6,7-tetrahydropyrazolo[1,5-a]pyrimidine-3-carboxamide]
11 | 204 to 205 °C | Cc1nn2c(c1C(=O)NC(C)(C)c1ccc(Cl)cc1)NC(c1ccccc1)CC2(C)C (stereo not shown) (as salt: HCl) [Example 792, N-(1-(4-chlorophenyl)-1-methylethyl)-2,7,7-trimethyl-5-phenyl-4,5,6,7-tetrahydropyrazolo[1,5-a]pyrimidine-3-carboxamide]
12 | 150 to 151 °C | Cc1ccc(C(C)(C)NC(=O)c2cnn3c2NC(c2ccccc2)CC3(C)C)cc1 (stereo not shown) (as salt: HCl) [Example 793, 7,7-dimethyl-N-(1-methyl-1-(4-methylphenyl)ethyl)-5-phenyl-4,5,6,7-tetrahydropyrazolo[1,5-a]pyrimidine-3-carboxamide]
13 | 193 to 194 °C | Cc1ccc(C(C)(C)NC(=O)c2c(C)nn3c2NC(c2ccccc2)CC3(C)C)cc1 (stereo not shown) (as salt: HCl) [Example 794, 2,7,7-trimethyl-N-(1-methyl-1-(4-methylphenyl)ethyl)-5-phenyl-4,5,6,7-tetrahydropyrazolo[1,5-a]pyrimidine-3-carboxamide]
14 | 143 to 144 °C | CCCCOC(=O)CCc1ccc(C(CC)(CC)NC(=O)c2cnn3c2NC(c2ccccc2)CC3(C)C)cc1 (stereo not shown) (as salt: HCl) [Example 815, butyl 3-(4-(1-(((7,7-dimethyl-5-phenyl-4,5,6,7-tetrahydropyrazolo[1,5-a]pyrimidin-3-yl)carbonyl)amino)-1-ethyl-propyl)phenyl)propanoate]
15 | 150 to 151 °C | CCC(CC)(NC(=O)c1cnn2c1NC(c1ccccc1)CC2(C)C)c1ccc(CCC(=O)OC(C)C)cc1 (stereo not shown) (as salt: HCl) [Example 816, isopropyl 3-(4-(1-(((7,7-dimethyl-5-phenyl-4,5,6,7-tetrahydropyrazolo[1,5-a]pyrimidin-3-yl)carbonyl)amino)-1-ethyl-propyl)phenyl)propanoate]
16 | 168 to 169 °C | CCC(CC)(NC(=O)c1cnn2c1NC(c1cccc(OC)c1)CC2(C)C)c1ccc(C)cc1 (stereo not shown) (as salt: HCl) [Example 820, N-(1-ethyl-1-(4-methylphenyl)propyl)-5-(3-methoxyphenyl)-7,7-dimethyl-4,5,6,7-tetrahydropyrazolo[1,5-a]pyrimidine-3-carboxamide]
17 | 140 to 141 °C | CCC(CC)(NC(=O)c1c(C)nn2c1NC(c1ccccc1)CC2(C)C)c1ccc(N(C)C)cc1 (stereo not shown) (as salt: HCl) [Example 821, N-(1-(4-(dimethylamino)phenyl)-1-ethylpropyl)-2,7,7-trimethyl-5-phenyl-4,5,6,7-tetrahydropyrazolo[1,5-a]pyrimidine-3-carboxamide]
18 | 120 to 121 °C | CCC(CC)(NC(=O)c1cnn2c1N(C)C(c1ccccc1)CC2(C)C)c1ccc(C)cc1 (stereo not shown) (as salt: HCl) [Example 827, N-(1-ethyl-1-(4-methylphenyl)propyl)-4,7,7-trimethyl-5-phenyl-4,5,6,7-tetrahydropyrazolo[1,5-a]pyrimidine-3-carboxamide]
19 | 152 to 153 °C | CCC(CC)(NC(=O)c1c(C)nn2c1NC(c1ccccc1F)CC2(C)C)c1ccc(C)cc1 (stereo not shown) (as salt: HCl) [Example 831, N-(1-ethyl-1-(4-methylphenyl)propyl)-5-(2-fluorophenyl)-2,7,7-trimethyl-4,5,6,7-tetrahydropyrazolo[1,5-a]pyrimidine-3-carboxamide]
20 | 176 to 177 °C | CCCC(CC)(CC)NC(=O)c1c(C)nn2c1NC(c1ccccc1)CC2(C)C (stereo not shown) (as salt: HCl) [Example 838, N-(1,1-diethylbutyl)-2,7,7-trimethyl-5-phenyl-4,5,6,7-tetrahydropyrazolo[1,5-a]pyrimidine-3-carboxamide]
21 | 160 to 162 °C | CCC(CC)(NC(=O)c1c(C)nn2c1NC(c1ccccc1F)CC2(C)C)c1ccccc1 (stereo not shown) (as salt: HCl) [Example 840, N-(1-ethyl-1-phenylpropyl)-5-(2-fluorophenyl)-2,7,7-trimethyl-4,5,6,7-tetrahydropyrazolo[1,5-a]pyrimidine-3-carboxamide]
22 | 180 to 182 °C | CCC(CC)(NC(=O)c1c(C)nn2c1NC(c1ccccc1)CC2(C)C)c1ccccc1F (stereo not shown) (as salt: HCl) [Example 843, N-(1-ethyl-1-(2-fluorophenyl)propyl)-2,7,7-trimethyl-5-phenyl-4,5,6,7-tetrahydropyrazolo[1,5-a]pyrimidine-3-carboxamide]
